Structures can show the parent of a compound that is named as a salt. Where two headings read alike, the source gives them in different places.

In experiment [1] the test system is experimental hepatopathy models prepared by administering carbon tetrachloride. The experiment in a line: Inhibitory action on hepatopathy in hepatopathy models by carbon tetrachloride (lipid emulsion; serum GPT and GOT). The experiment is classed as in vivo, ddY strain male mice. The conditions noted are these: Mus musculus, iv, 20 h, i.v., one hour before carbon tetrachloride; for inhibition in vivo at 0.001 mg/kg: dose 1 μg/kg; for inhibition in vivo at 0.0001 mg/kg: dose 0.1 μg/kg; for inhibition in vivo at 0.01 mg/kg: dose 10 μg/kg. Here is the method: Carbon tetrachloride was diluted with olive oil to a concentration of 0.5% when administered. The present isoprenylamine derivatives were formulated into the lipid emulsions according to the method described in Pharmaceutical Example 8 and intravenously administered at a dose of 0.1-10 μg/kg one hour before the administration of carbon tetrachloride. 20 hours after the administration of carbon tetrachloride, blood samples were collected from animals under ether anesthesia and centrifuged. Then, serum GPT and GOT were determined and the respective inhibition rates were calculated on the bases of the serum GPT and GOT values obtained when the present isoprenylamine derivative was not administered being defined as 100, respectively.

For experiment [2] the test system is unchanged. The experiment in a line: Inhibitory action on hepatopathy in hepatopathy models by carbon tetrachloride (suspension with 2% Tween 80; serum GPT and GOT). The experiment is classed as in vivo, ddY strain male mice. The conditions noted are these: suspension with 2% Tween 80, i.v., dose 0.1 mg/kg, one hour before carbon tetrachloride. Here is the method:
(§1) In these tests, GPT (glutamic-pyruvic transaminase) and GOT (glutamic-oxaloacetic transaminase) were determined using kits for the determination of GPT and GOT upon the method by U. Lippi et al., Iatrozyme TA-Lq (available from Iatron Laboratories Inc.), wherein the NADH formed when enzymes act upon substrates can reduce nitrotetrazolium blue (NTB) via 1-methoxy-5-methylphenazinium methylsulfate (1-methoxy PMS) to form formazan, which is then subjected to colorimetric analysis at a wavelength of 560 nm.
Inhibitory actions of the present isoprenylamine derivatives was evaluated by inhibition rates of GPT and GOT in experimental hepatopathy models prepared by administering carbon tetrachloride.
The experimental hepatopathy model was prepared by intraperitoneal administration of 0.02 ml/kg carbon tetrachloride to ddY strain male mice (6 weeks old, body weight of about 30 g). Carbon tetrachloride was diluted with olive oil to a concentration of 0.5% when administered. […]
20 hours after the administration of carbon tetrachloride, blood samples were collected from animals under ether anesthesia and centrifuged. Then, serum GPT and GOT were determined and the respective inhibition rates were calculated on the bases of the serum GPT and GOT values obtained when Compound 6 was not administered being defined as 100, respectively.

Experiment [3] has as its system experimental hepatopathy models prepared by D-galactosamine administration. In words: Inhibitory action on hepatopathy in hepatopathy models by D-galactosamine (serum GPT and GOT). The experiment is classed as in vivo, Wistar strain male mice. The conditions noted are these: iv, 24 h, lipid emulsion, i.v., dose 10 μg/kg, 2 hours after D-galactosamine. How it is done:
as §1
Inhibitory action of lipid emulsions containing the present isoprenylamine derivatives was evaluated by inhibition rates of GPT and GOT in experimental hepatopathy models prepared by D-galactosamine administration.
The experimental hepatopathy model was prepared by intraperitoneal administration of D-galactosamine at 400 mg/kg to Wistar strain male […] weighing about 170 g. The present isoprenylamine derivative was formulated to a lipid emulsion according to the method described in Pharmaceutical Example 8, and was intravenously administered at a dose of 10-30 μg/kg 2 hours after the administration of D-galactosamine.
24 hours after the D-galactosamine administration, blood samples were collected form animals under ether anesthesia and centrifuged. Then, serum GPT and GOT were determined and the respective inhibition rates were calculated on the bases of the serum GPT and GOT values obtained when the present isoprenylamine derivatives were not administered being defined as 100, respectively.
For comparison, glycyrrhizin ammonium (Tokyo Kasei Co.) dissolved in distilled water was administered in a similar manner to that for the isoprenylamine derivatives, blood sampling and determination were conducted and the serum GPT and GOT inhibition rates were calculated.

As to `CC(C)=CCC/C(C)=C/CC/C(C)=C/CC/C(C)=C/CC/C(C)=C/CC/C(C)=C/CC/C(C)=C/CC/C(C)=C/CC/C(C)=C/CNCc1ccc2c(c1)OCO2` [Compound 6, N-solanesylpiperonylamine hydrochloride], the inhibition in vivo at 0.001 mg/kg in experiment [1] (read-out: GOT inhibition) was 50%; in experiment [1] (read-out: GPT inhibition) it was 40%. The same compound showed a GOT inhibition in experiment [2] of 37%. This compound also yielded a GPT inhibition in experiment [2] of 34%. Further, the inhibition in vivo at 0.01 mg/kg in experiment [3] (read-out: GOT inhibition) and in experiment [3] (read-out: GPT inhibition) was 40% throughout.

For the compound `CC(C)=CCC/C(C)=C/CC/C(C)=C/CC/C(C)=C/CC/C(C)=C/CC/C(C)=C/CC/C(C)=C/CC/C(C)=C/CC/C(C)=C/CC/C(C)=C/CNCc1ccc2c(c1)OCO2` [Compound 20, N-decaprenylpiperonylamine hydrochloride], the inhibition in vivo at 0.0001 mg/kg in experiment [1] (read-out: GOT inhibition) was 53%; in experiment [1] (read-out: GPT inhibition), 60%. In addition, the results for the inhibition in vivo at 0.01 mg/kg in experiment [3] (read-out: GOT inhibition) and in experiment [3] (read-out: GPT inhibition) were 44% and 43%, respectively.

For the compound `CC(C)=CCC/C(C)=C/CC/C(C)=C/CC/C(C)=C/CC/C(C)=C/CC/C(C)=C/CC/C(C)=C/CNCc1ccc2c(c1)OCO2` [Compound 4, N-farnesylgeranylgeranylpiperonylamine hydrochloride], the values for the inhibition in vivo at 0.001 mg/kg in experiment [1] (read-out: GOT inhibition) and in experiment [1] (read-out: GPT inhibition) were 28% and 22%, respectively. The inhibition in vivo at 0.01 mg/kg in experiment [3] (read-out: GOT inhibition) turned out to be 31%; in experiment [3] (read-out: GPT inhibition), 30%.

For `CC(C)=CCC/C(C)=C/CC/C(C)=C/CC/C(C)=C/CC/C(C)=C/CC/C(C)=C/CC/C(C)=C/CC/C(C)=C/CC/C(C)=C/CNCc1ccc2c(c1)OCO2` [Compound 15, N-solanesylpiperonylamine malate], the inhibition in vivo at 0.01 mg/kg came out at 18% in experiment [1] (read-out: GOT inhibition) and 24% in experiment [1] (read-out: GPT inhibition).

Source of the values: patent US6048882A, “Prophylactic and therapeutic agent for hepatic diseases” (Nisshin Flour Milling Co., Ltd., priority 1995, dated 2000).
